Results reported in patent US20220175761A1, “BI-LIGAND DRUG CONJUGATE AND USE THEREOF” (COHERENT BIOPHARMA (SUZHOU), LIMITED, priority 2019, published 2022).

What was measured:
Assay in all cases: Inhibition of cell line proliferation, CCK8
Type in all cases: cell-based
[1] = system: MDA-MB-468 (human breast cancer cells); conditions: MDA-MB-468, 68-72 hours, CCK8
Experimental: (§1) Experimental Operations: LNCaP, SK-BR-3, MDA-MB-468 and CFPAC-1 cells were prepared in advance and counted; with a culture medium (IMDM+10% FBS+1× L-Glutamine+1×P/S), the cells LNCaP, SK-BR-3, MDA-MB-468 and CFPAC-1 were diluted to 4×10^4 cells/ml; the diluted cell solution was plated in 96-well plates at 100 µl/well; and negative control and blank control wells were set on each plate. After adherent cell culture overnight, the diluted samples to be tested were added at 50 μl/well. The plates were placed in an incubator at 37° C., 5% CO2 and cultured for 68-72 hours. To each well, 15 μl (10% of the liquid volume in a well) of a color developing solution from CCK8 was added; and the plates were incubated at 37° C. for 45-70 minutes and each plate was read at 450 nm on a microplate reader. The data was edited using SoftMax Pro and a 4-P fitting curve was plotted.
as §1, with “Operations: LNCaP, MDA-MB-468, CFPAC-1 and PANC-1” for “Operations: LNCaP, SK-BR-3, MDA-MB-468 and CFPAC-1”, “CFPAC-1 and PANC-1 cells were” for “MDA-MB-468 and CFPAC-1 cells were”, “cells LNCaP, MDA-MB-468 and” for “cells LNCaP, SK-BR-3, MDA-MB-468 and”, “to 4×10^4 cells/ml, and PANC-1 was diluted to 3.0×10^4 cells/ml; the” for “to 4×10^4 cells/ml; the”, “at 100 μl/well; and negative” for “at 100 µl/well; and negative”
(§2) Experimental operations: NCI-H226, CFPAC-1 and MDA-MB-468 cells were prepared in advance and counted; MDA-MB-468 and CFPAC-1 cells were plated at a density of 2×10^4 cells/ml (100 μl/well) and NCI-H226 cells were plated at a density of 1×10^4 cells/ml (100 μl/well) in 96-well plates; and negative control and blank control wells were set on each plate. After adherent cell culture overnight, the diluted samples to be tested were added at 50 μl/well. The plates were placed in an incubator at 37° C., 5% CO2 and cultured for 68-72 hours. To each well, 15 μl (10% of the liquid volume in a well) of a color developing solution from CCK8 was added; and the plates were incubated at 37° C. for 45-70 minutes and each plate was read at 450 nm on a microplate reader. The data was edited using SoftMax Pro and a 4-P fitting curve was plotted.

[2] = system: NCI-H226 (human lung cancer cells); conditions: NCI-H226, 68-72 hours, CCK8
Experimental: (§3) Experimental operations: LNCaP, SK-BR-3, NCI-H226, CFPAC-1 and PANC-1 cells were prepared in advance and counted; with a culture medium (IMDM+10% FBS+1× L-Glutamine+1×P/S), the cells LNCaP, SK-BR-3 and CFPAC-1 were diluted to 4×10^4 cells/ml, NCI-H226 was diluted to 2.0×10^4 cells/ml and PANC-1 was diluted to 3.0×10^4 cells/ml; the diluted cell solution was plated in 96-well plates at 100 μl/well; and negative control and blank control wells were set on each plate. After adherent cell culture overnight, the diluted samples to be tested were added at 50 μl/well. The plates were placed in an incubator at 37° C., 5% CO2 and cultured for 68-72 hours. To each well, 15 μl (10% of the liquid volume in a well) of a color developing solution from CCK8 was added; and the plates were incubated at 37° C. for 45-70 minutes and each plate was read at 450 nm on a microplate reader. The data was edited using SoftMax Pro and a 4-P fitting curve was plotted.
as §2

[3] = system: CFPAC-1 (human pancreatic cancer cells); conditions: CFPAC-1, 68-72 hours, CCK8
Experimental: Experimental operations: PANC-1 and CFPAC-1 cells were prepared in advance, counted, and plated in 96-well cell culture plates at a cell density of 4×10^4 cells/ml (100 μl/well); negative control and blank control wells were set on each plate. After adherent cell culture overnight, the diluted samples to be tested were added at 50 μl/well. The plates were placed in an incubator at 37° C., 5% CO2 and cultured for 68-72 hours. To each well, 15 μl (10% of the liquid volume in a well) of a color developing solution from CCK8 was added; and the plates were incubated at 37° C. for 45-70 minutes and each plate was read at 450 nm on a microplate reader. The data was edited using SoftMax Pro and a 4-P fitting curve was plotted.
as §3, §1
as §1, with “Operations: LNCaP, MDA-MB-468, CFPAC-1 and PANC-1” for “Operations: LNCaP, SK-BR-3, MDA-MB-468 and CFPAC-1”, “CFPAC-1 and PANC-1 cells were” for “MDA-MB-468 and CFPAC-1 cells were”, “cells LNCaP, MDA-MB-468 and” for “cells LNCaP, SK-BR-3, MDA-MB-468 and”, “to 4×10^4 cells/ml, and PANC-1 was diluted to 3.0×10^4 cells/ml; the” for “to 4×10^4 cells/ml; the”, “at 100 μl/well; and negative” for “at 100 µl/well; and negative”
Experimental operations: NCI-H226, CFPAC-1 and MDA-MB-468 cells were prepared in advance and counted; MDA-MB-468 and CFPAC-1 cells were plated at a density of 2×10^4 cells/ml (100 μl/well) and NCI-H226 cells were plated at a density of 1×10^4 cells/ml (100 μl/well) in 96-well plates; and negative control and blank control wells were set on each plate. After adherent cell culture overnight, the diluted samples to be tested were added at 50 μl/well. The plates were placed in an incubator at 37° C., 5% CO2 and cultured for 68-72 hours. […]

## CCCC(=O)N[C@@H](Cc1ccccc1)C(=O)N[C@H]1CSSC[C@@H](C(=O)N[C@H](C(=O)N[C@@H](CCCCNC(=O)[C@H](CCC(=O)O)NC(=O)CCOCCOCCOCCOCCNC(=O)[C@H](CCC(=O)O)NC(=O)[C@H](CSC2CC(=O)N(CCCCCC(=O)NCC(=O)NCC(=O)N[C@@H](Cc3ccccc3)C(=O)NCC(=O)NCOCC(=O)N[C@H]3CCc4c(C)c(F)cc5nc6c(c3c45)Cn3c-6cc4c(c3=O)COC(=O)[C@]4(O)CC)C2=O)NC(=O)CC[C@H](NC(=O)c2ccc(NCc3cnc4[nH]c(N)nc(=O)c4n3)cc2)C(=O)O)C(N)=O)[C@@H](C)O)NC(=O)[C@H]([C@@H](C)O)NC(=O)[C@H](CCCCN)NC(=O)[C@H](Cc2c[nH]c3ccccc23)NC(=O)[C@H](Cc2ccc(O)cc2)NC1=O (stereo partly drawn) [CR19426]
[1]
  IC50: 2300 nM
[2]
  IC50: 4390 nM
[3]
  IC50: 1660 nM

## CC[C@@]1(O)C(=O)OCc2c1cc1n(c2=O)Cc2c-1nc1cc(F)c(C)c3c1c2[C@@H](NC(=O)CO)CC3 [Dxd0017, reference compound]
[1]
  IC50: 6.1 nM
[2]
  IC50: 8 nM
[3]
  IC50: 6.4 nM

## CCc1c2c(nc3ccc(O)cc13)-c1cc3c(c(=O)n1C2)COC(=O)[C@]3(O)CC [SN-38, reference compound]
[1]
  IC50: 13.6 nM
[2]
  IC50: 17.3 nM
[3]
  IC50: 5.5 nM
